Measured values published in PubChem BioAssay AID449762 (Southern Research Specialized Biocontainment Screening …, 2010).
Records with an inconclusive call do not appear.

Tested on: M. tuberculosis H37Rv growth inhibition, 7H9 media
Experiment: M. tuberculosis growth inhibition, HTS (AID 449762);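 note: bacterial growth assessed after seven days of incubation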
Conditions: measured here: IC90 growth inhibition

Row | Compound | IC90
1 | CC(Oc1ccc2ccccc2c1)C(=O)NNC(=S)NC(=O)c1ccco1 (centres undefined) | 45 µM
2 | COc1ccc(C(C[N+](=O)[O-])c2c(-c3ccccc3)cc3ccccn23)c(OC)c1 (centres undefined) | 38.6 µM
3 | O=C(Nc1nc2c(s1)CCCC2)c1cc(-c2ccc3c(c2)OCO3)nc2ccccc12 | > 100 µM
4 | CCCCCCOC(=O)C(C#N)c1nc2ccccc2nc1N1CCN(CC)CC1 (centres undefined) | 29.7 µM
5 | CCN1CCN(c2oc(COc3ccc(-c4ccccc4)cc3)nc2C#N)CC1 | 48.4 µM
6 | c1ccc(-c2ccccc2OCCCCn2ccnc2)cc1 | 25.6 µM
7 | Cc1[nH]n(-c2ccccc2)c(=S)c1C=NCCCN=Cc1c(C)[nH]n(-c2ccccc2)c1=S | > 100 µM
8 | O=C(Cn1ncc(Cl)c(Cl)c1=O)c1ccc2c(c1)OCCO2 | 12.2 µM
9 | Cc1ccc2nc(/N=C(\N)NC(=O)NC3CCCCC3)nc(C)c2c1 | 8.85 µM
10 | O=C(CSc1nn(-c2ccc(F)cc2)c(=S)s1)NCC1CCCO1 (centres undefined) | > 100 µM
11 | CC(C)(C)c1ccc(Cn2c(=N)n(CC(O)c3ccco3)c3ccccc32)cc1 (centres undefined) | 22.2 µM
12 | C/C(=N\NC(N)=S)C1C2C3CC4C5CC(C42)C1C53 (centres undefined) | 58.2 µM
13 | Cc1ccccc1N1CCN(c2ncnc3c2cnn3Cc2ccc(Cl)cc2)CC1 | 8.72 µM
14 | Cc1cc(NC(=O)CCl)no1 | 3.6 µM
15 | CCCCC(=O)/C=C/n1c(=S)oc2ccccc21 | > 100 µM
16 | COc1ccc(-c2cc3n(n2)CCc2nc4ccccc4n2-3)cc1 | 5.92 µM
17 | COc1cc2nc(N3CCN(c4cc(C)ccc4C)CC3)nc(N)c2cc1OC | 15.8 µM
18 | Cc1c(C(=O)Nc2nc3ccccc3[nH]2)oc2c(Cl)cccc12 | > 100 µM
19 | COc1ccc(NC(=O)CN(C)CC(=O)Nc2sc3c(c2C(N)=O)CCC3)cc1 | 98 µM
20 | COC1=CC(=O)c2ccccc2C1=O | 21.9 µM
21 | CCOc1[nH]n(-c2ccccc2)c(=O)c1C=Nc1ccc(OC)cc1 | > 100 µM
22 | Cc1ccccc1C1C(C#N)=C2N=C(N)c3c(sc4c3CCCCC4)N2C2=C1C(=O)CC(C)(C)C2 (centres undefined) | > 100 µM

Row | Compound | IC90
23 | CC(C)(C)c1ccc(-c2nc3[nH]c(=O)cc(NC(=O)c4ccco4)n3n2)cc1 | > 100 µM
24 | CCN(CC)S(=O)(=O)c1ccc2[nH]cc(C(=O)NCCC3=CCCCC3)c(=O)c2c1 | > 100 µM
25 | Cc1nn(-c2ccccc2)c(N)c1N=Nc1ccc(Cl)cc1 | 41.5 µM
26 | COc1ccccc1OC(=O)c1ccc(S(=O)(=O)N(C)C)cc1 | 18.4 µM
27 | Cc1ccc2[nH]c(C)c(CCNC(=O)c3cc4cc([N+](=O)[O-])ccc4oc3=O)c2c1 | 16.5 µM
28 | CC1CN(c2ccc([N+](=O)[O-])c(NCCOc3ccc(Cl)cc3)c2)CC(C)N1 (centres undefined) | 12.8 µM
29 | Cn1ccc(=Nc2ccc(NC(=O)c3ccc(N=c4ccn(C)c5ccc([N+](=O)[O-])cc45)cc3)cc2)cc1 | < 0.2 µM
30 | O=C(NCc1ccccn1)C(=O)Nc1nc(C23CC4CC(CC(C4)C2)C3)cs1 | 5.26 µM
31 | CCc1nnc(NS(=O)(=O)c2ccc(N/C=C\C(=O)c3cccc(OC)c3)cc2)s1 | 35.5 µM
32 | Cc1ccc(C(=O)c2cc(C)sc2NC(=O)CN2CCN(C(=O)c3ccco3)CC2)cc1 | 12 µM
33 | S=c1nc[nH]c2nc[nH]c12 | 3.43 µM
34 | COc1ccc(-c2cc3nc(CCl)[nH]c(=O)c3s2)cc1 | 14.5 µM
35 | CC(=O)c1c(C)n(C)c2ccc(OC(=O)c3ccc([N+](=O)[O-])cc3)cc12 | > 100 µM
36 | CSc1ccc(NC(=O)Nc2cccn(Cc3ccccc3)c2=O)cc1 | > 100 µM
37 | CC1Cc2ccccc2N1C(=S)NC(=O)c1ccc(Cl)cc1Cl (centres undefined) | > 100 µM
38 | CC1(C)CC(=O)C2=C(C1)OC(N)=C([N+](=O)[O-])C2c1ccc(C#N)s1 (centres undefined) | > 100 µM
39 | Cc1cc(C)cc(NC(=O)CCc2ccc(C)o2)c1 | > 100 µM
40 | O=C(OCn1ncc(Br)c(Br)c1=O)c1ccc(F)cc1 | 3.58 µM
41 | O=C(NCc1ccc2c(c1)OCO2)c1c(O)nc2sccn2c1=O | > 100 µM
42 | CCOC(=O)c1ccc(NC(=O)CSc2ccc(-c3cccnc3)nn2)cc1 | > 100 µM
43 | Cc1ccccc1N/N=C/c1c(C)nc2ccccn12 | 53.7 µM
44 | Cc1cc(Br)ccc1NC(=O)c1cnc(N2CCN(c3ccccn3)CC2)c2ccccc12 | 3.49 µM
